Source: patent publication US20260256751A1, “COMBINATION OF BETA-2-ADRENERGIC RECEPTOR AGONISTS AND GLP-1 RECEPTOR AGONISTS FOR USE IN TREATING HYPERGLYCAEMIA” (ATROGI AB, priority 2023, published 2026)

What was measured:
[1] = tested on: differentiated L6-myotubes; assay: Glucose uptake screen (Biological example 1 of WO 2019/053427); type: cell-based; settings: compound at 10 μM, activity relative to isoproterenol at 10 μM, read-out: Biological example 1 of WO 2019/053427 (GU)
In short: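 Rat L6 myoblasts were differentiated into myotubes over 7 days in 2% FBS, then serum-starved overnight. Cells were stimulated with 1×10^−5 M compound plus β2 antagonist ICI-118551 for 1 h 40 min and re-dosed for 20 min in glucose-free medium. Uptake of 50 nM ^3H-2-deoxyglucose over 10 min was counted after NaOH lysis.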

[2] = tested on: differentiated L6-myotubes; assay: cAMP production relative to isoprenaline (Biological example 2 of WO 2019/053427); type: cell-based; settings: 0.25 h, compound at 10 μM, activity relative to isoproterenol at 10 μM
In short: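 Differentiated L6 myotubes stimulated 15 min with test compound or isoprenaline, each at final 1×10^−5 M, in HBSS with 1% BSA, 5 mM HEPES, 1 mM IBMX, pH 7.4. cAMP production by the compound expressed relative to that induced by the same concentration of isoprenaline.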

Row | SMILES | Emax at 10 µM [1] | Emax at 10 µM [2]
1 | CC(C)(C[C@H]1CC[C@H](NS(C)(=O)=O)CC1)NC[C@@H](O)c1cccc(C#N)n1 [Compound 428, 6-[(R)-2-{1,1-dimethyl-2-[(1r,4R)-4-(mesylamino)cyclohexyl]ethylamino}-1-hydroxyethyl]-2-pyridinecarobnitrile] | < 25% | < 25%
2 | CC(C)(C[C@H]1CC[C@H](NC(=O)C(C)(C)C)CC1)NC[C@H](O)c1cccc(F)c1 [Compound 429, N-[(1R,4r)-4-{2-[(R)-2-(m-fluorophenyl)-2-hdyroxyethylamino]-2-methylpropyl}cyclohexyl]2,2-dimethylpropionamide] | > 75% | 25 to 50%
3 | CN(C)C(=O)N[C@H]1CC[C@H](CC(C)(C)NC[C@H](O)c2cccc(F)c2)CC1 [Compound 430, (R)-2-{1,1-dimethyl-2-[(1r,4R)-4-(3,3-dimethylureido)cyclohexyl]ethylamino}-1-(m-fluorophenyl)-1-ethanol] | > 75% | 50 to 75%
4 | CC(C)(C[C@H]1CC[C@H](NC(=O)C2CCC2)CC1)NC[C@H](O)c1cccc(F)c1 [Compound 431, N-[(1R,4r)-4-{2-[(R)-2-(m-fluorophenyl)-2-hydroxyethylamino]-2-methylpropyl}cyclohexyl]cyclobutanecarboxamide] | > 75% | 50 to 75%
5 | CC(C)(C[C@H]1CC[C@H](NC(=O)C2CC2)CC1)NC[C@H](O)c1cccc(F)c1 [Compound 432, N-[(1R,4r)-4-{2-[(R)-2-(m-fluorophenyl)-2-hydroxyethylamino]-2-methylpropyl}cyclohexyl]cyclopropanecarboxmaide] | > 75% | > 75%
6 | CC(C)(C[C@H]1CC[C@H](NC(=O)C(F)(F)F)CC1)NC[C@H](O)c1cccc(F)c1 [Compound 433, N-[(1R,4r)-4-{2-[(R)-2-(m-fluorophenyl)-2-hydroxyethylamino]-2-methylpropyl}cyclohexyl]trifluoroacetamide] | > 75% | 25 to 50%
7 | CC(=O)N[C@H]1CC[C@H](CC(C)(C)NC[C@H](O)c2cccnc2C)CC1 [Compound 434, N-[(1R,4r)-4-{2-[(R)-2-hydroxy-2-(2-methyl-3-pyridyl)ethylamino]-2-methylpropyl}cyclohexyl]acetamide] | > 75% | < 25%
8 | Cc1ncccc1[C@@H](O)CNC(C)(C)C[C@H]1CC[C@H](NS(C)(=O)=O)CC1 [Compound 435, (R)-2-{1,1-dimethyl-2-[(1r,4R)-4-(mesylamino)cyclohexyl]ethylamino}-1-(2-methyl-3-pyridyl)-1-ethanol] | 25 to 50% | < 25%
9 | CC(=O)N[C@H]1CC[C@@H](CC(C)(C)NC[C@H](O)c2cccnc2C)CC1 [Compound 436, N-[(1S,4s)-4-{2-[(R)-2-hydroxy-2-(2-methyl-3-pyridyl)ethylamino]-2-methylpropyl}cyclohexyl]acetamide] | 50 to 75% | < 25%
10 | Cc1ncccc1[C@@H](O)CNC(C)(C)C[C@H]1CC[C@@H](NS(C)(=O)=O)CC1 [Compound 437, (R)-2-{1,1-dimethyl-2-[(1s,4S)-4-(mesylamino)cyclohexyl]ethylamino}-1-(2-methyl-3-pyridyl)-1-ethanol] | 25 to 50% | < 25%
11 | O[C@@H](c1cccc(F)c1)C12CCC(COCc3ccc(F)cc3)(CC1)N2 [Compound 438, (S)-(m-fluorophenyl)(4-{[(p-fluorophenyl)methoxy]methyl}-7-azabicyclo[2.2.1]hept-1-yl)methanol] | < 25% | < 25%
12 | O[C@H](c1cccc(F)c1)C12CCC(COCc3ccc(F)cc3)(CC1)N2 [Compound 439, (R)-(m-fluorophenyl)(4-{[(p-fluorophenyl)methoxy]methyl}-7-azabicyclo[2.2.1]hept-1-yl)methanol] | > 75% | 25 to 50%
13 | O[C@@H](c1cccc(F)c1)C12CCC(COc3ccc(Cl)cc3)(CC1)N2 [Compound 440, (S)-{4-[(p-chlorophenoxy)methyl]-7-azabicyclo[2.2.1]hept-1-yl}(m-fluorophenyl)methanol] | > 75% | < 25%
14 | O[C@H](c1cccc(F)c1)C12CCC(COc3ccc(Cl)cc3)(CC1)N2 [Compound 441, (R)-{4-[(p-chlorophenoxy)methyl]-7-azabicyclo[2.2.1]hept-1-yl}(m-fluorophenyl)methanol] | > 75% | < 25%
15 | O[C@@H](c1cncc(F)c1)C12CCC(COCc3ccc(F)cc3)(CC1)N2 [Compound 442, (S)-(4-{[(p-fluorophenyl)methoxy]methyl}-7-azabicyclo[2.2.1]hept-1-yl)(5-fluoro-3-pyridyl)methanol] | 25 to 50% | < 25%
16 | O[C@H](c1cncc(F)c1)C12CCC(COCc3ccc(F)cc3)(CC1)N2 [Compound 443, (R)-(4-{[(p-fluorophenyl)methoxy]methyl}-7-azabicyclo[2.2.1]hept-1-yl)(5-fluoro-3-pyridyl)methanol] | > 75% | 25 to 50%
17 | O[C@H](c1ccccc1F)C12CCC(CCc3cccnc3)(CC1)N2 [Compound 444, (R)-(o-fluorophenyl){4-[2-(3-pyridyl)ethyl]-7-azabicyclo[2.2.1]hept-1-yl}methanol] | > 75% | 50 to 75%
18 | O[C@@H](c1cccc(F)c1)C12CCC(CCc3cccnc3)(CC1)N2 [Compound 445, (S)-(m-fluorophenyl){4-[2-(3-pyridyl)ethyl]-7-azabicyclo[2.2.1]hept-1-yl}methanol] | > 75% | < 25%
19 | O[C@H](c1cccc(F)c1)C12CCC(CCc3cccnc3)(CC1)N2 [Compound 446, (R)-(m-fluorophenyl){4-[2-(3-pyridyl)ethyl]-7-azabicyclo[2.2.1]hept-1-yl}methanol] | > 75% | 50 to 75%
20 | CC(C)(C[C@H]1CC[C@@H](NC(=O)C2CC2)CC1)NC[C@H](O)c1cccc(F)c1 [Compound 447, N-[(1S,4s)-4-{2-[(R)-2-(m-fluorophenyl)-2-hydroxyethylamino]-2-methylpropyl}cyclohexyl]cyclopropanecarboxamide] | > 75% | < 25%
21 | CC(C)(C[C@H]1CC[C@@H](NC(=O)C2CCC2)CC1)NC[C@H](O)c1cccc(F)c1 [Compound 448, N-[(1S,4s)-4-{2-[(R)-2-(m-fluorophenyl)-2-hydroxyethylamino]-2-methylpropyl}cyclohexyl]cyclobutanecarboxamide] | 50 to 75% | < 25%
22 | CC(C)(C[C@H]1CC[C@@H](NC(=O)OC(C)(C)C)CC1)NC[C@H](O)c1cccc(F)c1 [Compound 449] | 50 to 75% | < 25%
23 | CC(C)(C[C@H]1CC[C@@H](NC(=O)OC(C)(C)C)CC1)NC[C@H](O)c1cccc(C(F)(F)F)n1 [Compound 450, (1R,4s)-4-(2-{(S)-2-hydroxy-2-[6-(trifluoromethyl)-2-pyridyl]ethylamino}-2-methylpropyl)cyclohexyl 2-methyl-2-propanecarbamate] | < 25% | < 25%
24 | CCCS(=O)(=O)N[C@H]1CC[C@H](CC(C)(C)NC[C@H](O)c2cccc(F)c2)CC1 [Compound 451, (R)-2-{1,1-dimethyl-2-[(1r,4R)-4-(propylsulfonylamino)cyclohexyl]ethylamino}-1-(m-fluorophenyl)-1-ethanol] | 50 to 75% | 25 to 50%
